PubChem BioAssay (NCI)
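Assay format: 96-well plates, 48-hour exposure. TGI marks complete inhibition of growth.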

Columns and labels:
Assay in all cases: DTP human tumour cell line panel, 48 h
SNB-75 CNS = test system: SNB-75 CNS
MOLT-4 leukemia = test system: MOLT-4 leukemia
TK-10 renal = test system: TK-10 renal
UACC-62 melanoma = test system: UACC-62 melanoma
SF-539 CNS = test system: SF-539 CNS
SF-295 CNS = test system: SF-295 CNS
HOP-92 NSCLC = test system: HOP-92 NSCLC
UACC-257 melanoma = test system: UACC-257 melanoma
NCI-H522 lung = test system: NCI-H522 lung
A549 NSCLC = test system: A549 NSCLC
A498 renal = test system: A498 renal
NCI-H460 lung = test system: NCI-H460 lung
RPMI-8226 leukemia = test system: RPMI-8226 leukemia
LOX IMVI melanoma = test system: LOX IMVI melanoma
MDA-MB-231 breast = test system: MDA-MB-231 breast
T-47D breast = test system: T-47D breast
NCI-H226 lung = test system: NCI-H226 lung
PC-3 prostate = test system: PC-3 prostate
MCF7 breast = test system: MCF7 breast
RXF 393 renal = test system: RXF 393 renal

Compound | TGI (SNB-75 CNS) | TGI (MOLT-4 leukemia) | TGI (TK-10 renal) | TGI (UACC-62 melanoma) | TGI (SF-539 CNS) | TGI (SF-295 CNS) | TGI (HOP-92 NSCLC) | TGI (UACC-257 melanoma) | TGI (NCI-H522 lung) | TGI (A549 NSCLC) | TGI (A498 renal) | TGI (NCI-H460 lung) | TGI (RPMI-8226 leukemia) | TGI (LOX IMVI melanoma) | TGI (MDA-MB-231 breast) | TGI (T-47D breast) | TGI (NCI-H226 lung) | TGI (PC-3 prostate) | TGI (MCF7 breast) | TGI (RXF 393 renal)
CC(C)OP(=O)(OC(C)C)c1nn(-c2ccc([N+](=O)[O-])cc2)c(=N)s1 | 95.5 µM | > 100 µM | > 100 µM | > 100 µM | > 100 µM | > 100 µM | > 100 µM | > 100 µM | > 100 µM | > 100 µM | > 100 µM | > 100 µM | > 100 µM |  |  |  |  |  |  | 
O=c1cnn(C/C=C/CP(=O)(O)O)c(=O)[nH]1 | > 100 µM |  | > 100 µM |  | > 100 µM |  | > 100 µM | > 100 µM | > 100 µM | > 100 µM | > 100 µM | > 100 µM | > 100 µM | > 100 µM | > 100 µM | > 100 µM | > 100 µM | > 100 µM | > 100 µM | > 100 µM
OC12c3ccccc3C1CCCCCCCCCC21OCCCO1 (stereo unspecified) | > 100 µM |  | > 100 µM | > 100 µM | > 100 µM | > 100 µM |  | > 100 µM | > 100 µM | > 100 µM |  |  | > 100 µM | > 100 µM |  |  | > 100 µM |  |  | 
COc1cccc(N2C(=O)CSC2c2c[nH]c3ccccc23)c1 (stereo unspecified) | > 100 µM | > 100 µM | > 100 µM | > 100 µM |  | > 100 µM | > 100 µM | > 100 µM | > 100 µM |  |  | > 100 µM |  | > 100 µM | > 100 µM | > 100 µM |  | > 100 µM | > 100 µM | > 100 µM
COC1C(=[N+]=[N-])C(=O)NC(=O)N1C1OC(COC(c2ccccc2)(c2ccccc2)c2ccccc2)C(O)C1O (stereo unspecified) | 29.5 µM | 49.7 µM |  | 30.5 µM | 35.6 µM | 37.4 µM |  |  | 31 µM | 31.9 µM | 35.4 µM | 60.6 µM | 61.8 µM | 30.1 µM |  |  | 32.1 µM |  |  | 
CCOC(=O)c1csc(NC(=O)CN2CCCCC2)n1 | > 100 µM | > 100 µM | > 100 µM | > 100 µM | > 100 µM | > 100 µM | > 100 µM | > 100 µM |  | > 100 µM | > 100 µM | > 100 µM | > 100 µM | > 100 µM | > 100 µM | > 100 µM |  | > 100 µM | > 100 µM | > 100 µM
